We go through two compounds from ChEMBL document CHEMBL4406836, “The design of a cell-selective fowlicidin-1-derived peptide with both antimicrobial and anti-inflammatory activities” (Eur J Med Chem, 2019).

The subject of data set [1] is RAW264.7. Description: Antiinflammatory activity in mouse RAW264.7 cells assessed as reduction in LPS-induced NO production at 10 uM incubated for 48 hrs by Griess reagent based assay. Type of data set: functional, cell-based. (In general: The Griess reaction detects nitrite, a stable product of nitric oxide.)
Another data set deals with Enterococcus faecium. Description: Potency index, ratio of MIC of LL-37 to MIC of compound for antibacterial activity against vancomycin-resistant Enterococcus faecium ATCC 51559 assessed as reduction in bacterial growth incubated for 18 hrs by spectrophotometry based microtiter broth dilution method. In kind it is functional. (Dilution methods test growth across graded concentrations, often in twofold steps.)

The next data set deals with Lipopolysaccharide (LPS). Description: Displacement of BODIPY-TR-cadaverine from Escherichia coli O111:B4 LPS by fluorescence spectrophotometry.
In data set [2] the test system is RAW264.7. Kind of data set: Antiinflammatory activity in mouse RAW264.7 cells assessed as reduction in LPS-induced TNFalpha release at 8 uM preincubated for 1 hr followed by LPS-challenge and measured after 6 hrs by ELISA relative to control. In kind it is functional. (ELISA stands for enzyme-linked immunosorbent assay.)
The subject of data set [3] is Escherichia coli. Kind of data set: Antibacterial activity against Escherichia coli KCTC 1682 assessed as reduction in bacterial growth incubated for 18 hrs in presence of 150 mM NaCl by spectrophotometry based microtiter broth dilution method. The conditions noted are these: KCTC 1682, 18 h. Type of data set: functional.
Data set [4] relates to Escherichia coli. Description: Antibacterial activity against Escherichia coli KCTC 1682 assessed as reduction in bacterial growth incubated for 18 hrs in presence of 1 mM MgCl2 by spectrophotometry based microtiter broth dilution method. Type of data set: functional. The conditions noted are these: KCTC 1682, 18 h.
The subject of data set [5] is Staphylococcus aureus. Description: Potency index, ratio of MIC of LL-37 to MIC of compound for antibacterial activity against methicillin-resistant Staphylococcus aureus CCARM 3089 assessed as reduction in bacterial growth incubated for 18 hrs by spectrophotometry based microtiter broth dilution method. Type of data set: functional.
The subject of data set [6] is Escherichia coli. Description: Antibacterial activity against Escherichia coli KCTC 1682 assessed as reduction in bacterial growth incubated for 18 hrs in presence of 20 % human serum by spectrophotometry based microtiter broth dilution method. Type of data set: functional. To be noted: KCTC 1682, 18 h.
In data set [7] the test system is Pseudomonas aeruginosa. Kind of data set: Potency index, ratio of MIC of melittin to MIC of compound for antibacterial activity against multidrug-resistant Pseudomonas aeruginosa CCARM 2109 assessed as reduction in bacterial growth incubated for 18 hrs by spectrophotometry based microtiter broth dilution method. Type of data set: functional.
Data set [8] deals with RAW264.7. Description: Antiinflammatory activity in mouse RAW264.7 cells assessed as reduction in LPS-induced NO production at 4 uM incubated for 24 hrs by Griess reagent based assay relative to control. The conditions noted are these: RAW264.7, 24 h. Type of data set: functional.
Data set [9] deals with Pseudomonas aeruginosa. Kind of data set: Potency index, ratio of MIC of LL-37 to MIC of compound for antibacterial activity against multidrug-resistant Pseudomonas aeruginosa CCARM 2109 assessed as reduction in bacterial growth incubated for 18 hrs by spectrophotometry based microtiter broth dilution method. In kind it is functional.
Data set [10] concerns Escherichia coli. Kind of data set: Antibacterial activity against Escherichia coli KCTC 1682 assessed as reduction in bacterial growth incubated for 18 hrs in presence of 4.5 mM KCl by spectrophotometry based microtiter broth dilution method. Type of data set: functional. To be noted: KCTC 1682, 18 h.
The nature of data set [11]: Therapeutic index, ratio of MHC10 for hemolytic activity in sheep RBC assessed as minimal hemolytic concentration causing 10% hemolysis to MIC for antibacterial activity. Type of data set: toxicity. To be noted: sheep red blood cells.
Data set [12] relates to Pseudomonas aeruginosa. Description: Potency index, ratio of MIC of melittin to MIC of compound for antibacterial activity against multidrug-resistant Pseudomonas aeruginosa CCARM 2095 assessed as reduction in bacterial growth incubated for 18 hrs by spectrophotometry based microtiter broth dilution method. Type of data set: functional.
Data set [13] deals with Escherichia coli. Kind of data set: Antibacterial activity against Escherichia coli KCTC 1682 assessed as reduction in bacterial growth incubated for 18 hrs in presence of 2.5 mM CaCl2 by spectrophotometry based microtiter broth dilution method. In kind it is functional. To be noted: KCTC 1682, 18 h.
Data set [14] concerns Pseudomonas aeruginosa. Description: Potency index, ratio of MIC of LL-37 to MIC of compound for antibacterial activity against multidrug-resistant Pseudomonas aeruginosa CCARM 2095 assessed as reduction in bacterial growth incubated for 18 hrs by spectrophotometry based microtiter broth dilution method. Type of data set: functional.
The test system of data set [15] is Staphylococcus aureus. Description: Antibacterial activity against Staphylococcus aureus KCTC 1621 assessed as reduction in bacterial growth incubated for 18 hrs by spectrophotometry based microtiter broth dilution method. To be noted: KCTC 1621, 18 h. In kind it is functional.
Data set [16] has as its system Staphylococcus aureus. Kind of data set: Antibacterial activity against Staphylococcus aureus KCTC 1621 assessed as reduction in bacterial growth incubated for 18 hrs in presence of 6 uM NH4Cl by spectrophotometry based microtiter broth dilution method. To be noted: KCTC 1621, 18 h. In kind it is functional.
In data set [17] the test system is RAW264.7. Description: Cytotoxicity against mouse RAW264.7 cells assessed as reduction in cell viability at upto 16 uM incubated for 48 hrs by MTT assay. In kind it is cell-based. The conditions noted are these: raw264.7, 48 h.
For data set [18], the system named is Staphylococcus aureus. Description: Antibacterial activity against Staphylococcus aureus KCTC 1621 assessed as reduction in bacterial growth incubated for 18 hrs in presence of 150 mM NaCl by spectrophotometry based microtiter broth dilution method. The conditions noted are these: KCTC 1621, 18 h. In kind it is functional.
The subject of a further data set is Erythrocyte. Description: Hemolytic activity in sheep RBC assessed as minimal hemolytic concentration causing 10% hemolysis incubated for 2 hrs by ELISA. Type of data set: ADME, cell-based, Ovis aries.
Data set [19] concerns Staphylococcus aureus. Kind of data set: Antibacterial activity against Staphylococcus aureus KCTC 1621 assessed as reduction in bacterial growth incubated for 18 hrs in presence of 1 mM MgCl2 by spectrophotometry based microtiter broth dilution method. To be noted: KCTC 1621, 18 h. In kind it is functional.
Data set [20] concerns RAW264.7. Description: Antiinflammatory activity in mouse RAW264.7 cells assessed as reduction in LPS-induced iNOS gene expression at 4 uM incubated for 3 hrs by qRT-PCR analysis. Type of data set: functional, cell-based.
Data set [21] deals with Staphylococcus aureus. Kind of data set: Antibacterial activity against methicillin-resistant Staphylococcus aureus CCARM 3089 assessed as reduction in bacterial growth at 8 uM incubated for 72 hrs in presence of chloramphenicol by spectrophotometry. In kind it is functional. The conditions noted are these: CCARM 3089, 72 h.
The test system of data set [22] is Staphylococcus aureus. Description: Antibacterial activity against methicillin-resistant Staphylococcus aureus CCARM 3089 assessed as reduction in bacterial growth at 8 uM incubated for 72 hrs in presence of oxacillin by spectrophotometry. To be noted: CCARM 3089, 72 h. Type of data set: functional.
The test system of data set [23] is Pseudomonas aeruginosa. Kind of data set: Antibacterial activity against multidrug-resistant Pseudomonas aeruginosa CCARM 2095 assessed as reduction in bacterial growth at 4 uM incubated for 72 hrs in presence of oxacillin by spectrophotometry. Type of data set: functional. The conditions noted are these: CCARM 2095, 72 h.

Active and inactive are the calls of the source.

The term inhibition denotes the relative decrease from the control value, in per cent. As usually defined, the MIC is the smallest concentration in the dilution series that meets the test's criterion for growth inhibition. Take H-LVIRWVRAGYKLYRAIKKK-NH2: in the data set with RAW264.7 [1], the outcome was Active. Moreover, the Ratio in the data set with Enterococcus faecium, in the data set on Staphylococcus aureus [5], in the data set with Pseudomonas aeruginosa [7], with Pseudomonas aeruginosa [9], with Pseudomonas aeruginosa [12] and in the data set with Pseudomonas aeruginosa [14] was 2 - 8 in each case. For the same compound, in the data set on Lipopolysaccharide (LPS), the inhibition result is “Dose-dependent effect”. The inhibition at 8 µM in the data set on RAW264.7 [2] was 75.2%. The MIC in the data set on Escherichia coli [3] amounted to 4 µM; in the data set with Escherichia coli [4], 4 µM; with Escherichia coli [6] it was 8 µM; in the data set with Escherichia coli [10] it was 4 µM; with Escherichia coli [13], 4 µM; with Staphylococcus aureus [15], 2 µM. Besides, the MIC with Staphylococcus aureus [16] is 2 µM; with Staphylococcus aureus [18] it was 2 µM; in the data set on Staphylococcus aureus [19] it was 4 µM. In the data set with RAW264.7 [8], the inhibition at 4 µM was determined as 94.2%. Further, the selectivity ratio in data set [11] was 28.4. Also, the Activity entry with RAW264.7 [17] is on record as “Non-Toxic”. For the same compound, in the data set with Erythrocyte, the MHC10 is 105 µM.
On to `CC[C@H](C)[C@H](NC(=O)[C@H](CCCCN)NC(=O)[C@H](CCC(=O)O)NC(=O)[C@H](CCCCN)NC(=O)[C@H](CO)NC(=O)[C@H](CCCCN)NC(=O)[C@H](CCCNC(=N)N)NC(=O)[C@H](Cc1ccccc1)NC(=O)[C@H](Cc1ccccc1)NC(=O)[C@H](CC(=O)O)NC(=O)CNC(=O)[C@H](CC(C)C)NC(=O)[C@@H](N)CC(C)C)C(=O)NCC(=O)N[C@@H](CCCCN)C(=O)N[C@@H](CCC(=O)O)C(=O)N[C@@H](Cc1ccccc1)C(=O)N[C@@H](CCCCN)C(=O)N[C@@H](CCCNC(=N)N)C(=O)N[C@H](C(=O)N[C@H](C(=O)N[C@@H](CCC(N)=O)C(=O)N[C@@H](CCCNC(=N)N)C(=O)N[C@H](C(=O)N[C@@H](CCCCN)C(=O)N[C@@H](CC(=O)O)C(=O)N[C@@H](Cc1ccccc1)C(=O)N[C@@H](CC(C)C)C(=O)N[C@@H](CCCNC(=N)N)C(=O)N[C@@H](CC(N)=O)C(=O)N[C@@H](CC(C)C)C(=O)N[C@H](C(=O)N1CCC[C@H]1C(=O)N[C@@H](CCCNC(=N)N)C(=O)N[C@H](C(=O)N[C@@H](CCC(=O)O)C(=O)N[C@@H](CO)C(=O)O)[C@@H](C)O)C(C)C)[C@@H](C)CC)C(C)C)[C@@H](C)CC` [CATHELICIDIN], for which the inhibition entry in the data set with RAW264.7 [20] was “Active”. The values for the MIC with Staphylococcus aureus [21], in the data set on Staphylococcus aureus [22] and in the data set on Pseudomonas aeruginosa [23] were 4 µM, 2 µM and 4 µM, respectively.
